# In patent publication US12569554B2, “Triterpene saponin analogues” (priority 2017, dated 2026):
# Read-outs that look alike come from different tables or passages of the source.
# Legend:
# [1] = Engerix-B study, body weight; type: in vivo, mice
# Hemolytic assay = type: cell-based
# Procedure: (§3) Natural and synthetic QS-21 (SQS-21 or SAPONEX®) and a variety of analogs were tested for hemolytic activity.
# mice [2] = assay: Pilot pharmacology/toxicology study: blood chemistry, hematology, histopathology; type: in vivo; settings: 50 mcg TiterQuil-1055, 20 mcg QS-21, Adacel 2.5 mcg pertussis toxin, alone or combined; for changes in blood chemistry or hematology results: SC days 1 and 15; for liver histopathology, hepatocellular cytoplasmic vacuolization: SC days 1 and 15, sacrificed day 22
# Procedure: (§1) A pharm/tox study was conducted in 7 groups of 5 mice: 1) PBS alone, 2) 50 mcg TiterQuil-1055, 3) 20 mcg QS-21, 4) Adacel 2.5 mcg pertussis toxin (1/5 the human dose), 5) Adacel+QS-21 (20 mcg QS-21), 6) Adacel+TiterQuil-1055 (50 mcg), 7) Adacel+TiterQuil-1055 (50 mcg). Mice were vaccinated SC on days 1 and 15, weighed daily, and bled and sacrificed on day 22, except for group 7 which was sacrificed on day 29. […] Histopathology of 33 different tissues was performed on all mice. Detected abnormalities were restricted to the liver. […] This abnormality was short lived and was no detected in group 7, which was sacrificed one week after groups 1-6.
# [3] = type: in vivo, mice; settings: for body weight loss: 50 mcg TiterQuil-1055, 20 mcg QS-21
# Procedure: (§2) Adacel doses containing 1, 0.3, and 0.1 mcg of pertussis toxin per mouse were administered subcutaneously (SC, with no immunological adjuvant), using 2 vaccinations 4 weeks apart, resulting in a mean of 1,618 mcg, 898 mcg, and 107 mcg respectively of anti-PT antibody per ml of serum drawn 2 weeks after the second vaccination. The 0.1 mcg dose was indistinguishable from unvaccinated controls (96 mcg/ml). A 0.5 mcg dose of Adacel was selected for a pharmacology/toxicology (pharm/tox) study. The serological results for this study are summarized in FIG. 3 of the present application.
# as §1
# Stability at 37° C. = type: physicochemical; settings: for degraded: after two weeks at 37° C.
# Procedure: as §3
# mice [4] = assay: Engerix-B immunogenicity, anti-HBsAg antibody; type: in vivo
# Procedure: Experiments were conducted with Engerix-B (HBV adult vaccine) in groups of 10 mice. Initially 3 mcg, 1 mcg, 0.3 mcg, 0.1 mcg, and 0.03 mcg Engerix-B doses per mouse were tested.
# mice [5] = assay: Adacel pharm/tox study, serology with TiterQuil-1055 or QS-21; type: in vivo; settings: for augmentation of antibody levels compared to immunization with Adacel alone: adjuvant given with Adacel
# Procedure: as §2, §1
# [6] = Companion toxicity study, body mass; type: in vivo, mice; settings: three days after immunization
# Procedure: as §3
# humans = settings: cited from earlier work
# [7] = groups of 5 mice, 2 weeks after second SC immunization
compound,measurement,setting,value
CC1O[C@@H](OC2C(O)[C@@H](NC(=O)CCCCCCCCCCC(=O)O)C(CO)O[C@H]2OC(=O)[C@]23CCC(C)(C)CC2C2=CCC4C5(C)CC[C@H](O)C(C)(C=O)C5CCC4(C)C2(C)CC3O)C(O)C(O)[C@H]1O[C@@H]1OC[C@@H](O)C(O)C1O (stereo partly shown) [Compound I-4],weight loss,[1]; 30 mcg TiterQuil-1055 dose,No weight loss
same,weight loss,[1]; 100 mcg TiterQuil-1055 dose,4%
same,weight loss,[1]; 300 mcg TiterQuil-1055 dose,5%
same,hemolytic activity,Hemolytic assay,much lower or undetectable hemolytic activity
same,changes in blood chemistry or hematology results,mice [2],No changes
same,"liver histopathology, hepatocellular cytoplasmic vacuolization",mice [2],No changes at all
same,weight loss,"[3]; 50 mcg TiterQuil-1055, 20 mcg QS-21, Adacel 2.5 mcg pertussis toxin, alone or combined, SC days 1 and 15, weighed daily",no other mice
same,body weight loss,[3],No weight loss
same,degraded,Stability at 37° C.,without detectable degradation
same,stability,Stability at 37° C.; compared with QS-21,increased stability
same,serologic effect,mice [4]; 10 mcg TiterQuil-1055 mixed with 0.3 mcg Engerix-B,no serologic effect
same,increase in antibody levels compared to Engerix-B alone,mice [4]; 30 mcg TiterQuil-1055 mixed with 0.3 mcg Engerix-B,> 6 fold
same,increase in antibody levels compared to Engerix-B alone,mice [4]; 100 mcg TiterQuil-1055 mixed with 0.3 mcg Engerix-B,5 fold
same,antibody response at higher adjuvant doses,mice [4]; TiterQuil-1055 doses above 50 mcg per mouse,Lack of antibody increase or decreasing responses
same,antibody levels 2 weeks later,"mice [5]; Adacel with TiterQuil-1055, a further 2 weeks later",further increased
same,antibody levels,"mice [5]; groups of 5 mice, 2 weeks after second SC immunization, Adacel alone or Adacel with TiterQuil-1055","52,344"
same,augmentation of antibody levels compared to immunization with Adacel alone,mice [5]; [7],70 fold
same,body mass gained on average,[6],5%
QS-21 [reference compound],hemolytic activity,Hemolytic assay,highly hemolytically active
same,tolerated dose in cancer patients,"humans; cancer patients, above it local and systemic side effects",100 to 150 µg
same,maximum dose for healthy patients,humans; healthy patients,~50 µg
same,highest practical tolerable dose,humans; well (non-cancer) adult and child recipients,25 to 50 µg
same,changes in blood chemistry or hematology results,mice [2],No changes
same,"liver histopathology, hepatocellular cytoplasmic vacuolization",mice [2],Mild vacuolar changes
same,body weight loss,[3],8-9%
same,degraded,Stability at 37° C.,20%
same,augmentation of antibody levels compared to immunization with Adacel alone,mice [5]; [7],10 fold
same,body mass lost on average,[6]; 20 mcg QS-21,8-10%
